The source of these data is PubChem BioAssay (NCI).

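Five concentrations, 48 hours, 96-well plates. GI50 marks 50% less growth. TGI denotes the concentration required for complete inhibition of growth.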

Among the test systems are A549 NSCLC; DLD-1 colon; HOP-62 NSCLC; M19-MEL melanoma; MOLT-4 leukemia; SF-295 CNS; SK-MEL-2 melanoma; SW-620 colon; NCI-H522 lung; T-47D breast.
What all share (assay): DTP human tumour cell line panel, 48 h

With `C[C@]12CC[C@H](O)CC1=CC[C@@H]1C2CC[C@]2(C)Nc3c(cnn3-c3ccccc3)CC12` (stereo not given in full), the total growth inhibition concentration (TGI) (usually the concentration giving total growth inhibition) with A549 NSCLC worked out at 37 µM; in the test on DLD-1 colon, 35.7 µM; in the test on HOP-62 NSCLC it was 8.81 µM; in the test with M19-MEL melanoma, 27.5 µM; with MOLT-4 leukemia it was 5.15 µM; with SF-295 CNS, 1.87 µM. For the same compound, the figures for the TGI in the test on SK-MEL-2 melanoma and with SW-620 colon were 48.2 µM and 8.22 µM, respectively.
As for `c1ccc(-c2nc(N3CCOCC3)c3c4c(sc3n2)CCCCCC4)nc1`, the GI50 (in general, the concentration at which growth is held to half of that of the control) in the test on A549 NSCLC is 3.57 µM; in the test on HOP-62 NSCLC, 9.53 µM; in the test on MOLT-4 leukemia it was 3.77 µM; in the test on NCI-H522 lung, 5.85 µM; with SF-295 CNS it was 3.39 µM; in the test with SK-MEL-2 melanoma it was 7.9 µM. In addition, the GI50 was 8.87 µM with SW-620 colon and 4.46 µM in the test on T-47D breast. Also, the TGI with A549 NSCLC is 15.9 µM; in the test with HOP-62 NSCLC it was 24.6 µM; in the test on MOLT-4 leukemia it was 17 µM; in the test on NCI-H522 lung, 20.2 µM; with SF-295 CNS it was 15.8 µM; with SK-MEL-2 melanoma, 21.7 µM. Moreover, the TGI in the test on SW-620 colon turned out to be 21.9 µM; in the test with T-47D breast, 22.7 µM.
Take `Cc1cccc(C)c1NC(=O)CCc1nc(=S)[nH][nH]1`: the TGI in the test with A549 NSCLC, with DLD-1 colon, with HOP-62 NSCLC, with M19-MEL melanoma, in the test on MOLT-4 leukemia and in the test with NCI-H522 lung was greater than 100 µM each time. Further, the TGI in the test with SK-MEL-2 melanoma and in the test on SW-620 colon was greater than 100 µM throughout.
As to `Cc1ccc(S(=O)(=O)c2nc(-c3ccccc3)oc2S(C)=O)cc1` (stereo not given), the GI50 in the test with A549 NSCLC is 5.23 µM; in the test on HOP-62 NSCLC it was 6.87 µM; in the test on MOLT-4 leukemia, 2.12 µM; in the test on NCI-H522 lung it was 1.12 µM; in the test with SF-295 CNS, 10 µM; with SK-MEL-2 melanoma, 1.73 µM. The GI50 is 1.47 µM in the test with SW-620 colon and 1.23 µM in the test with T-47D breast. The TGI in the test with A549 NSCLC was determined as 18.5 µM; in the test with HOP-62 NSCLC, 20.3 µM; in the test with MOLT-4 leukemia, 5.5 µM; with NCI-H522 lung, 2.59 µM; in the test with SF-295 CNS, 22.2 µM; in the test on SK-MEL-2 melanoma it was 3.73 µM. The TGI turned out to be 3.48 µM in the test on SW-620 colon and 3.17 µM in the test on T-47D breast.
As for `Cc1nn2c(/C=C3/C(=O)Nc4cc(Cl)ccc43)c(-c3ccccc3)nc2s1`, the GI50 with A549 NSCLC was 3.28 µM; in the test with HOP-62 NSCLC it was 4.4 µM; in the test on MOLT-4 leukemia, 4.11 µM; in the test on NCI-H522 lung, 1.8 µM; in the test on SF-295 CNS, 11.1 µM; in the test with SK-MEL-2 melanoma, 7.07 µM. Besides, the GI50 in the test with SW-620 colon is 3 µM; in the test with T-47D breast it was 1.75 µM. The TGI in the test on A549 NSCLC was 14.9 µM; with HOP-62 NSCLC, 17.9 µM; in the test on MOLT-4 leukemia, greater than 100 µM; with NCI-H522 lung, 4.11 µM; in the test with SF-295 CNS it was 38.1 µM; with SK-MEL-2 melanoma, 46.7 µM. The figures for the TGI with SW-620 colon and in the test on T-47D breast were greater than 100 µM and 4.04 µM, respectively.
With `O=C(NCCc1ccccn1)OCc1nc2nc(Cl)nc(N3CCOCC3)c2[nH]1`, the GI50 is 7.16 µM with A549 NSCLC; 2.37 µM in the test with HOP-62 NSCLC; 3 µM with MOLT-4 leukemia; 1.93 µM in the test with NCI-H522 lung; 4.96 µM in the test with SF-295 CNS; 4.16 µM in the test with SK-MEL-2 melanoma. The figures for the GI50 in the test on SW-620 colon and in the test on T-47D breast were 1.7 µM and 2.13 µM, respectively. The TGI turned out to be 24.9 µM in the test with A549 NSCLC; 12.6 µM with HOP-62 NSCLC; 9.5 µM with MOLT-4 leukemia; 4.96 µM in the test with NCI-H522 lung; 17.4 µM in the test on SF-295 CNS; 15.6 µM in the test on SK-MEL-2 melanoma. Besides, the values for the TGI with SW-620 colon and with T-47D breast were 4.25 µM and 6.48 µM, respectively.
For `CC(C)OP(=O)(OC(C)C)/C(N)=N/Nc1ccc([N+](=O)[O-])cc1`, the TGI with A549 NSCLC, in the test on DLD-1 colon, in the test on HOP-62 NSCLC, with M19-MEL melanoma, with MOLT-4 leukemia and with NCI-H522 lung was greater than 100 µM throughout. Besides, the TGI in the test with SK-MEL-2 melanoma and in the test on SW-620 colon was greater than 100 µM throughout.
Turning to `CSCCCNC(=O)c1ccc2c(c1)/C(=C/c1[nH]c(C)cc1C)C(=O)N2`, the GI50 in the test with A549 NSCLC is 2.75 µM; with HOP-62 NSCLC it was 0.286 µM; in the test on MOLT-4 leukemia, 1.7 µM; in the test on NCI-H522 lung, 0.843 µM; with SF-295 CNS it was 2.15 µM; with SK-MEL-2 melanoma it was 0.356 µM. The GI50 was 0.846 µM with SW-620 colon and 0.465 µM in the test with T-47D breast. Also, the TGI with A549 NSCLC was greater than 100 µM; with HOP-62 NSCLC it was greater than 100 µM; with MOLT-4 leukemia, greater than 100 µM; in the test with NCI-H522 lung, greater than 100 µM; in the test on SF-295 CNS, greater than 100 µM; with SK-MEL-2 melanoma it was 4.42 µM. In addition, the TGI in the test with SW-620 colon and in the test with T-47D breast was greater than 100 µM throughout.
On to `Cc1nc(Nc2ccccn2)sc1C(=O)/C=C/c1ccc(Cl)cc1`, for which the GI50 in the test on A549 NSCLC was 0.426 µM; with HOP-62 NSCLC, 0.574 µM; in the test with MOLT-4 leukemia it was 0.592 µM; with NCI-H522 lung, 0.241 µM; in the test with SF-295 CNS it was 0.308 µM; with SK-MEL-2 melanoma it was 1.36 µM. Further, the values for the GI50 with SW-620 colon and in the test on T-47D breast were 0.445 µM and 8.68 µM, respectively. Also, the TGI in the test with A549 NSCLC is greater than 100 µM; with HOP-62 NSCLC, greater than 100 µM; with MOLT-4 leukemia, greater than 100 µM; in the test with SF-295 CNS it was 23 µM; in the test on SK-MEL-2 melanoma, greater than 100 µM; in the test with SW-620 colon it was greater than 100 µM. Also, the TGI in the test with T-47D breast is greater than 100 µM.
On to `C#Cc1c(C)c(/C=C/C(C)=C/C(=O)OC)n(C)c1C`, for which the TGI in the test on A549 NSCLC, with DLD-1 colon, with HOP-62 NSCLC, in the test on M19-MEL melanoma, in the test with MOLT-4 leukemia and in the test with NCI-H522 lung was greater than 100 µM in each case. The TGI in the test on SF-295 CNS and with SW-620 colon was greater than 100 µM in each case.
Consider `CN1CCc2c1nc(-c1ccc(Cl)cc1)c1c2N(C)CC1`, for which the TGI in the test with A549 NSCLC is greater than 100 µM; in the test on DLD-1 colon it was 82.4 µM; in the test with HOP-62 NSCLC it was 27.7 µM; in the test on M19-MEL melanoma, greater than 100 µM; in the test on MOLT-4 leukemia, 31.4 µM; in the test on SF-295 CNS it was 31.1 µM. The TGI in the test with SK-MEL-2 melanoma and in the test with SW-620 colon was greater than 100 µM each time.
